Results taken from BindingDB's records for patent US20250122166 (ST. JUDE CHILDREN''S RESEARCH HOSPITAL, INC., 2025).

What follows are compounds tested against Protein cereblon (Homo sapiens, UniProt Q96SW2) (assay: Crbn Fluorescence Polarization Assay).
Method: In this competitive fluorescent polarization assay Cy5 conjugated lenalidomide analog (Cy5—O-Len)1 was used as a fluorescent probe. 6XHis-CRBN-DDB1 protein (200 nM) and Cy5—O-Len probe (30 nM) were combined in 20 mM HEPES pH 7, 150 mM NaCl, 0.005% Tween-20 assay buffer. 20 μL of this assay cocktail was dispensed into wells of Corning 3821 black 384-well plates. Compounds were transferred to the assay plate from a dose-response plate using a Pintool on a Biomek FXP Laboratory Automation Workstation (Beckman Coulter). The plates were incubated in the dark for 1 hour at room temperature and then read on an Envision plate reader (PerkinElmer, Massachusetts, USA). IC50 values were determined using a proprietary software RISE (Robust Investigation of Screening Experiments), developed in house on the Pipeline Pilot platform (Biovia, v. 17.2.0). Data represent the mean of three independent determinations.

IC50, < 1 µM:
O=C1CCC(N2Cc3c(CNC(=O)c4ccc(Cl)cc4Cl)cccc3C2=O)C(=O)N1 (stereo not drawn) [US20250122166, Compound 28]
O=C1CCC(N2Cc3c(CNC(=O)c4ccc(Cl)c(C(F)(F)F)c4)cccc3C2=O)C(=O)N1 (stereo not drawn) [US20250122166, Compound 21]
O=C1CCC(N2Cc3c(CNC(=O)c4ccc(Br)cc4)cccc3C2=O)C(=O)N1 (stereo not drawn) [US20250122166, Compound 18]
